Measured values reported in ChEMBL document CHEMBL5120838, “Synthesis and biological evaluation of geniposide derivatives as inhibitors of hyperuricemia, inflammatory and fibrosis” (Eur J Med Chem, 2022).

Target: Xanthine dehydrogenase/oxidase (Bos taurus, UniProt P80457)
Experiment: Inhibition of bovine XOD assessed as inhibition of uric acid formation using xanthine as substrate preincubated with enzyme for 5 mins followed by substrate addition and measured for 30 mins by microplate reader analysis

Xanthine dehydrogenase/oxidase, sequence (P80457 whole entry): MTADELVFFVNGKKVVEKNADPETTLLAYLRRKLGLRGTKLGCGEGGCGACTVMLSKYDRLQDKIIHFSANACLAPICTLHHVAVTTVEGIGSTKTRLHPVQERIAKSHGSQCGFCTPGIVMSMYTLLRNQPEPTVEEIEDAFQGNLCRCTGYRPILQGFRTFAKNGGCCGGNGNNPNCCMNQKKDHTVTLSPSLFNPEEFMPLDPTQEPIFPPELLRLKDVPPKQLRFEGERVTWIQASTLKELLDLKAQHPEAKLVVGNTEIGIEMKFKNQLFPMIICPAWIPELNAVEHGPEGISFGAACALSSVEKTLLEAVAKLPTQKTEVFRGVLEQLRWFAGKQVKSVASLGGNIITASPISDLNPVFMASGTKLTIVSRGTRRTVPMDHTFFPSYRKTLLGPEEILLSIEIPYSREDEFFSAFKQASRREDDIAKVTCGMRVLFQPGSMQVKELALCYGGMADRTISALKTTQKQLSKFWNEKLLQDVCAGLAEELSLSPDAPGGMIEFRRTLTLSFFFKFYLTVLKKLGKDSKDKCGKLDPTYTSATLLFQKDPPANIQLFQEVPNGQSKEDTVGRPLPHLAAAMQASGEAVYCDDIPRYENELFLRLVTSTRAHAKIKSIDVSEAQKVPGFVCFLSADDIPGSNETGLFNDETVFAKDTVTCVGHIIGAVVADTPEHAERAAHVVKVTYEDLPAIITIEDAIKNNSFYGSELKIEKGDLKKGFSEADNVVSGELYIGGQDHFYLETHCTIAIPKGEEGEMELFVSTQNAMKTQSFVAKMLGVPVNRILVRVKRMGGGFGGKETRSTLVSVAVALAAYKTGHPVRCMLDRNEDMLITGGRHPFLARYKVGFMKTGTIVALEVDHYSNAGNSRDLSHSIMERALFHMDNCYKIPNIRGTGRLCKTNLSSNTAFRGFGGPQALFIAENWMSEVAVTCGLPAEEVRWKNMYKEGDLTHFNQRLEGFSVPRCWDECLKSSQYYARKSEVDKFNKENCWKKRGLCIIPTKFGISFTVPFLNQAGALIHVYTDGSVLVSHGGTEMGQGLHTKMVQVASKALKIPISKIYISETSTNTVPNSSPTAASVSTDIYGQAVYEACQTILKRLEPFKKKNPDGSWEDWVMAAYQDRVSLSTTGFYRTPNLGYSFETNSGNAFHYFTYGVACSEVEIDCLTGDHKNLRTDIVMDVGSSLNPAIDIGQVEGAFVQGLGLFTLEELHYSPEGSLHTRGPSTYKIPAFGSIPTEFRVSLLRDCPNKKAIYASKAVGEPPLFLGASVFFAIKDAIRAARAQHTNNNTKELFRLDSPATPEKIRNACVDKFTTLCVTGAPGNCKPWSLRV

Row | IC50 [µM] | Compound
1 | 75.5 | CC(=O)OCC1=CC[C@@H]2C(C(=O)Nc3ccccc3-c3ccccc3)=CO[C@@H](O[C@@H]3O[C@H](COC(C)=O)[C@@H](OC(C)=O)[C@H](OC(C)=O)[C@H]3OC(C)=O)[C@H]12
2 | 35.3 | CC(=O)OCC1=CC[C@@H]2C(C(=O)O)=CO[C@@H](O[C@@H]3O[C@H](COC(C)=O)[C@@H](OC(C)=O)[C@H](OC(C)=O)[C@H]3OC(C)=O)[C@H]12
3 | 36.6 | CC(=O)OCC1=CC[C@@H]2C(C(=O)NCc3ccncc3)=CO[C@@H](O[C@@H]3O[C@H](COC(C)=O)[C@@H](OC(C)=O)[C@H](OC(C)=O)[C@H]3OC(C)=O)[C@H]12
4 | 48.8 | COC(=O)C1=COC(OC(=O)NCCCCl)[C@@H]2C(COC(=O)NCCCCl)=CC[C@H]12 (stereo partly specified)
5 | 104 | COC(=O)C1=COC(OC(=O)NC(C)(C)C)[C@@H]2C(COC(=O)NC(C)(C)C)=CC[C@H]12 (stereo partly specified)
6 | 165 | COC(=O)C1=CO[C@@H](O[C@@H]2O[C@H](CO)[C@@H](O)[C@H](O)[C@H]2O)[C@H]2[C@@H]1CC1OC12CO (stereo partly specified)
7 | 30.7 | CC(=O)OCC1=CC[C@@H]2C(C(=O)Oc3cncc4ccccc34)=CO[C@@H](O[C@@H]3O[C@H](COC(C)=O)[C@@H](OC(C)=O)[C@H](OC(C)=O)[C@H]3OC(C)=O)[C@H]12
8 | 28.8 | CC(=O)OCC1=CC[C@@H]2C(C(=O)Nc3cccc(F)c3)=CO[C@@H](O[C@@H]3O[C@H](COC(C)=O)[C@@H](OC(C)=O)[C@H](OC(C)=O)[C@H]3OC(C)=O)[C@H]12
9 | 140 | COC(=O)C1=COC(OC(=O)Nc2cccc(C)c2)[C@@H]2C(COC(=O)Nc3cccc(C)c3)=CC[C@H]12 (stereo partly specified)
10 | 93.4 | COC(=O)C1=COC(O)[C@@H]2C(CO)=CC[C@H]12 (stereo partly specified)
11 | 87.5 | CC(=O)OCC1=CC[C@@H]2C(C(=O)Sc3ncc[nH]3)=CO[C@@H](O[C@@H]3O[C@H](COC(C)=O)[C@@H](OC(C)=O)[C@H](OC(C)=O)[C@H]3OC(C)=O)[C@H]12
12 | 181 | CC(=O)OCC1=CC[C@@H]2C(C(=O)SCc3ccccc3)=CO[C@@H](O[C@@H]3O[C@H](COC(C)=O)[C@@H](OC(C)=O)[C@H](OC(C)=O)[C@H]3OC(C)=O)[C@H]12
13 | 32.4 | CC(=O)OCC1=CC[C@@H]2C(C(=O)Nc3ccc(C(=O)O)cc3)=CO[C@@H](O[C@@H]3O[C@H](COC(C)=O)[C@@H](OC(C)=O)[C@H](OC(C)=O)[C@H]3OC(C)=O)[C@H]12
14 | 22.8 | CC(=O)OCC1=CC[C@@H]2C(C(=O)Sc3cccs3)=CO[C@@H](O[C@@H]3O[C@H](COC(C)=O)[C@@H](OC(C)=O)[C@H](OC(C)=O)[C@H]3OC(C)=O)[C@H]12
15 | 63.9 | CC(=O)OCC1=CC[C@@H]2C(C(=O)Nc3nn[nH]n3)=CO[C@@H](O[C@@H]3O[C@H](COC(C)=O)[C@@H](OC(C)=O)[C@H](OC(C)=O)[C@H]3OC(C)=O)[C@H]12
16 | 69.7 | CC(C)CC(=O)OCC1=CC[C@@H]2C(C(=O)O)=CO[C@@H](O[C@@H]3O[C@H](COC(=O)CC(C)C)[C@@H](OC(=O)CC(C)C)[C@H](OC(=O)CC(C)C)[C@H]3OC(=O)CC(C)C)[C@H]12
17 | 15.8 | CC(=O)OCC1=CC[C@@H]2C(C(=O)NCCC#N)=CO[C@@H](O[C@@H]3O[C@H](COC(C)=O)[C@@H](OC(C)=O)[C@H](OC(C)=O)[C@H]3OC(C)=O)[C@H]12
18 | 9.15 | CC(=O)OCC1=CC[C@@H]2C(C(=O)Oc3ccncc3)=CO[C@@H](O[C@@H]3O[C@H](COC(C)=O)[C@@H](OC(C)=O)[C@H](OC(C)=O)[C@H]3OC(C)=O)[C@H]12

Row | IC50 [µM] | Compound
19 | 91.2 | CC(C)(C)C(=O)OCC1=CC[C@@H]2C(C(=O)O)=CO[C@@H](O[C@@H]3O[C@H](COC(=O)C(C)(C)C)[C@@H](OC(=O)C(C)(C)C)[C@H](OC(=O)C(C)(C)C)[C@H]3OC(=O)C(C)(C)C)[C@H]12
20 | 23.9 | COC(=O)C1=COC(OC(=O)Nc2ccccc2Br)[C@@H]2C(COC(=O)Nc3ccccc3Br)=CC[C@H]12 (stereo partly specified)
21 | 80.2 | COC(=O)C1=COC(OC(=O)NC(C)C)[C@@H]2C(COC(=O)NC(C)C)=CC[C@H]12 (stereo partly specified)
22 | 61.2 | CCNC(=O)OCC1=CC[C@@H]2C(C(=O)OC)=COC(OC(=O)NCC)[C@H]12 (stereo partly specified)
23 | 17.5 | CC(=O)OCC1=CC[C@@H]2C(C(=O)Nc3cccc4[nH]ccc34)=CO[C@@H](O[C@@H]3O[C@H](COC(C)=O)[C@@H](OC(C)=O)[C@H](OC(C)=O)[C@H]3OC(C)=O)[C@H]12
24 | 5.15 | CC(=O)OCC1=CC[C@@H]2C(C(=O)Oc3cccc(C#N)c3)=CO[C@@H](O[C@@H]3O[C@H](COC(C)=O)[C@@H](OC(C)=O)[C@H](OC(C)=O)[C@H]3OC(C)=O)[C@H]12
25 | 48.8 | CCC(=O)OCC1=CC[C@@H]2C(C(=O)O)=CO[C@@H](O[C@@H]3O[C@H](COC(=O)CC)[C@@H](OC(=O)CC)[C@H](OC(=O)CC)[C@H]3OC(=O)CC)[C@H]12
26 | 12.6 | CC(=O)OCC1=CC[C@@H]2C(C(=O)SC3=NCCS3)=CO[C@@H](O[C@@H]3O[C@H](COC(C)=O)[C@@H](OC(C)=O)[C@H](OC(C)=O)[C@H]3OC(C)=O)[C@H]12
27 | 22.8 | CC(=O)OCC1=CC[C@@H]2C(C(=O)Nn3ncc4ccccc43)=CO[C@@H](O[C@@H]3O[C@H](COC(C)=O)[C@@H](OC(C)=O)[C@H](OC(C)=O)[C@H]3OC(C)=O)[C@H]12
28 | 20.5 | CC(=O)OCC1=CC[C@@H]2C(C(=O)Sc3ccncc3)=CO[C@@H](O[C@@H]3O[C@H](COC(C)=O)[C@@H](OC(C)=O)[C@H](OC(C)=O)[C@H]3OC(C)=O)[C@H]12
29 | 55.7 | CCCC(=O)OCC1=CC[C@@H]2C(C(=O)O)=CO[C@@H](O[C@@H]3O[C@H](COC(=O)CCC)[C@@H](OC(=O)CCC)[C@H](OC(=O)CCC)[C@H]3OC(=O)CCC)[C@H]12
30 | 73.6 | CC(=O)OCC1=CC[C@@H]2C(C(=O)Nc3ccc(C(=O)NCC(=O)O)cc3)=CO[C@@H](O[C@@H]3O[C@H](COC(C)=O)[C@@H](OC(C)=O)[C@H](OC(C)=O)[C@H]3OC(C)=O)[C@H]12
31 | 18.5 | CC(=O)OCC1=CC[C@@H]2C(C(=O)Nc3cncc4ccccc34)=CO[C@@H](O[C@@H]3O[C@H](COC(C)=O)[C@@H](OC(C)=O)[C@H](OC(C)=O)[C@H]3OC(C)=O)[C@H]12
32 | 8.74 | CC(=O)OCC1=CC[C@@H]2C(C(=O)On3cccn3)=CO[C@@H](O[C@@H]3O[C@H](COC(C)=O)[C@@H](OC(C)=O)[C@H](OC(C)=O)[C@H]3OC(C)=O)[C@H]12
33 | 281 | COC(=O)C1=COC(OC(=O)NC2CCCCC2)[C@@H]2C(COC(=O)NC3CCCCC3)=CC[C@H]12 (stereo partly specified)
34 | 62.2 | O=C(O)C1=CO[C@@H](O[C@@H]2O[C@H](CO)[C@@H](O)[C@H](O)[C@H]2O)[C@@H]2C(CO)=CC[C@H]12 [GENIPOSIDIC ACID]
35 | 73.6 | COC(=O)C1=COC(OC(=O)Nc2ccc(C)cc2)[C@@H]2C(COC(=O)Nc3ccc(C)cc3)=CC[C@H]12 (stereo partly specified)
36 | 12.8 | COC(=O)C1=COC(OC(=O)Nc2ccc(OC)cc2)[C@@H]2C(COC(=O)Nc3ccc(OC)cc3)=CC[C@H]12 (stereo partly specified)
